Structures are written as SMILES. Where two headings read alike, the source gives them in different places.

The test system of one data set is NCI-H1975-Luc cells. The experiment in a line: Intracranially implanted NCI-H1975-Luc tumor efficacy study in mice (BLI and survival). It is filed as in vivo. The procedure:
N-(2-(2-(Dimethylamino)ethoxy)-4-methoxy-5-((4-(1-methyl-1H-indol-3-yl)pyrimidin-2-yl)amino)phenyl)acrylamide methanesulfonate (1⋅Ms; C27H30N6O3.1.06 CH3SO3H. MW=486.58, FW=588.45, purity=100%) was formulated in a vehicle of 1% polysorbate 80 in water. The complete vehicle was added to the pre-weighed compound to achieve a 5 mg/mL stock solution, suitable for treatment of the 50 mg/kg dose level. The mixture was vortexed for approximately one minute resulting in a light yellow solution with a pH value of 7. The dosing solution was prepared fresh daily.
Female Envigo Nude mice (Hsd:Athymic Nude-Foxn1^nu) were used. They were 6-7 weeks old on Day 1 of the experiment. The animals were fed irradiated Harlan 2918.15 Rodent Diet and water ad libitum. Animals were housed in static cages with Bed-O'Cobs™ bedding inside Biobubble® Clean Rooms that provide H. E. P. A filtered air into the bubble environment at 100 complete air changes per hour. All treatments, body weight determinations, and tumor measurements were carried out in the bubble environment. The environment was controlled to a temperature range of 70±2 OF and a humidity range of 30-70%.
NCI-H1975-Luc cells were obtained from Clovis. They were grown in RPMI 1640 medium which was modified with 1 mM Na pyruvate+2 mM L-glutamine+10 mM HEPES+2.5 g/L glucose+5 ug/mL blasticidin and supplemented with 10% non-heat-inactivated Fetal Bovine Serum (FBS) and 1% 100× Penicillin/Streptomycin/L-Glutamine (PSG). The growth environment was maintained in an incubator with a 5% CO2 atmosphere at 37° C. When expansion was complete, the cells (passage 4) were trypsinized using 0.25% trypsin-EDTA solution. Following cell detachment, the trypsin was inactivated by dilution with complete growth medium and any clumps of cells were separated by pipetting. The cells were centrifuged at 200 ref for 8 minutes at 4° C. the supernatant was aspirated, and the pellet was re-suspended in cold Dulbecco's Phosphate Buffered Saline (DPBS) by pipetting. An aliquot of the homogeneous cell suspension was diluted in a trypan blue solution and counted using a Luna automated cell counter to determine a pre-implantation cell viability. The cell suspension was centrifuged at 200 ref for 8 minutes at 4° C. The supernatant was aspirated and the cell pellet was re-suspended in cold serum-free medium to generate a final concentration of 1.00E+08 trypan-excluding cells/mL. The cell suspension was maintained on wet ice during implantation. Following implantation, an aliquot of the remaining cells was diluted with a trypan blue solution and counted to determine the post-implantation cell viability.
Test mice were implanted intracranially on Day 0 with 1.00E+06 cells per 10 μL as per the protocol (Appendix 1). For aseptic surgical implantation, mice were injected with 0.2 mg/kg buprenorphine and anesthetized using 2% isoflurane in air. The mice were then secured in a stereotaxic frame (ASI instruments, Inc.) using non-rupture ear bars. Ocular ointment was applied to the eyes of the mice to prevent drying during surgery. A re-circulating 37° C. water heated pad was used to maintain the animal's body temperature during the implantation procedure. Once in the stereotaxic frame, the cranium was swabbed with alternating chlorhexidine solution and 70% ethanol-saturated swabs to disinfect the skin surface and prepare for the incision. A 1 cm longitudinal incision was made centrally over bregma of the cranium using a #15 BD scalpel blade. The incision was retracted using small, serrated serrefines. The thin layer of connective tissue covering the surface of the skull was removed using dry cotton swabs under light pressure. Bleeding vessels were cauterized to prevent blood loss. A 0.9 mm drill bit was then centered over bregma, moved 2 mm right lateral, 1 mm anterior to the coronal suture and lowered to score the surface of the skull using the stereotaxic electrode manipulator arm. […]

The nature of data set [1]: Pharmacokinetics in male SD rats dosed PO (plasma and brain). To be noted: male SD rats PO 5 mg/kg; for Cmax: 0.5% methylcellulose vehicle; for MRT inf: read-out: MRT0-inf; for MRT last: read-out: MRT0-last. Format: in vivo, rat.
Data set [2] deals with kinase domain of the T790M double mutant. Kind of data set: Inhibition of EGFR T790M double mutant kinase domain. The note with it: in addition to the activating mutations. It is filed as biochemical.
Where [3] appears, read: 50 mg/kg, PO, QD×14 (Days 5-18).

For `C=CC(=O)Nc1cc(Nc2nccc(-c3cn(C)c4ccccc34)n2)c(OC)cc1OCCN(C)C` [1⋅Ms, N-(2-(2-(Dimethylamino)ethoxy)-4-methoxy-5-((4-(1-methyl-1H-indol-3-yl)pyrimidin-2-yl)amino)phenyl)acrylamide methanesulfonate], the increase in lifespan in the data set on NCI-H1975-Luc cells (setting [3]) came out at 15 days. Also, the “BLI derived Day 13 % T/C” value in the data set on NCI-H1975-Luc cells (50 mg/kg, PO, QD×14 (Days 5-18), median BLI signal treated/control ×100, P<0.05) was 1%. Moreover, the “% ILS (life-span increase vs. vehicle)” value in the data set on NCI-H1975-Luc cells (50 mg/kg, PO, QD×14 (Days 5-18), methanesulfonate) came to 107%. Also, in the data set with NCI-H1975-Luc cells (50 mg/kg, PO, QD×14 (Days 5-18), p<0.001), the median lifespan stood at 29.0 days. Besides, the tolerability of treatment entry in the data set on NCI-H1975-Luc cells (50 mg/kg, PO, QD×14 in nude mice) is recorded as “well-tolerated”. Also, the “animals with complete regressions” value with NCI-H1975-Luc cells (By Day 18, 50 mg/kg PO QD×14, CR = BLI below 2.0E+05 photons/sec) is given as “none”. Moreover, the “animals with partial tumor regressions” value in the data set with NCI-H1975-Luc cells (By Day 18, 50 mg/kg PO QD×14, PR = ≥50% decrease in tumor BLI signal) was 100%. Moreover, in data set [1] (Brain), the AUC0-inf came to 5085 ng·h/g, the AUC0-last stood at 5047 ng·h/g, the AUCExtra came to 0.746% and the AUMCExtra worked out at 2.57%. The same compound had a Tlast in data set [1] (Brain) of 18.0 h. In data set [1] (Plasma), this compound came in with an AUCExtra of 0.593%, an AUMCExtra of 2.42% and a Tlast of 18.0 h. Further, the Kp in data set [1] (rat, Brain (vs plasma), read-out: AUC Ratio) turned out to be 9.44. In data set [1] (rat, Brain), the time to peak (Tmax) is 2 h, the half-life was 2.01 h, the Cmax came to 606 ng/g and the MRT inf was found to be 6.07 h. For the same compound, the MRT last in data set [1] (rat, Brain) is 5.95 h. For the same compound, in data set [1] (rat, Plasma), the area under the curve AUC(0-t) is 535 ng·h/mL, the time to peak (Tmax) stood at 2 h, the half-life was 1.97 h and the maximum concentration (Cmax) is 96.3 ng/mL. Besides, in data set [1] (rat, Plasma), the MRT inf was 5.1 h and the MRT last was found to be 5.01 h. Besides, in data set [1] (rat, Plasma, read-out: AUC0-inf), the AUC0-inf amounted to 538 ng·h/mL.

With `C=CC(=O)Nc1cc(Nc2nccc(-c3cn(C)c4ccccc34)n2)c(OC)cc1OCCN(C)C` [Compound 1], the “% ILS (life-span increase vs. vehicle)” value in the data set with NCI-H1975-Luc cells (setting [3]) is recorded as “greater than 100%”. Further, the “inhibition of the kinase domain of the T790M double mutant” value in data set [2] was “effectively inhibits”.

For orientation: Tmax means the time at which the peak concentration occurs. By half-life is commonly meant the time in which the quantity being followed falls by half. A lower half-life goes with fast loss. As usually defined, the Cmax is the peak of the concentration-time curve. The term AUC(0-t) denotes exposure summed from dosing to a finite time, without extrapolation to infinity. Low values mean low exposure, high ones high exposure.

The values are drawn from patent US11052086B2, “2-anilinopyrimidine derivatives as therapeutic agents for treatment of brain cancers” (Beta Pharma, Inc., priority 2016, dated 2021).
